# Measured values: ChEMBL document CHEMBL6074686 (Eur J Med Chem, 2025)
# Activity calls are given as the source filed them. The calls are words filed in the database; no cut-off is given here.
# Key:
# [1] = test system: MDA-MB-231; experiment: Antitumor activity against human MDA-MB-231 cells assessed as reduction in cell viability incubated for 72 hrs by CCK8 assay; settings: MDA-MB-231, 72 h
# [2] = test system: SK-OV-3; experiment: Induction of cell cycle arrest in human SK-OV-3 cells assessed as increase in G2/M phase cells at 2.5 nM incubated for 24 hrs PI staining based flow cytometric analysis (reference value: 24.6 +/- 2.0%); assay type: functional
# [3] = test system: SK-OV-3; experiment: Inhibition of cell migration in human SK-OV-3 cells assessed as reduction in wound closure at 6.25 nM incubated for 24 hrs by wound healing assay (reference value: 21.8 +/- 7.6%); assay type: functional; settings: SK-OV-3, 24 h, values are per cent of control
# [4] = test system: SK-OV-3; experiment: Induction of cell cycle arrest in human SK-OV-3 cells assessed as downregulation of Cdc-2 expression at 100 nM incubated for 24 hrs by Western blotting analysis; assay type: functional, cell-based
# [5] = test system: SK-OV-3; experiment: Induction of apoptosis in human SK-OV-3 cells assessed as increase in apoptotic cells at 2.5 to 40 nM by IncuCyte live-cell imaging analysis; assay type: functional, cell-based; settings: dose 2.5-40 nM, time lower 24.0 hrs, time upper […]
# [6] = test system: SK-OV-3; experiment: Induction of apoptosis in human SK-OV-3 cells assessed as upregulation of cleaved-caspase-3 expression incubated for 24 hrs by Western blotting analysis; assay type: functional, cell-based; settings: dose 25-100 nM
# [7] = biological target: Tubulin (Homo sapiens) (UniProt P68371+Q9H4B7+P0DPH7+P68366+Q13509+Q71U36+P04350+Q3ZCM7+P07437+P68363+Q9BQE3+Q6PEY2+Q13885+Q9BVA1+Q9BUF5); experiment: Inhibition of tubulin polymerization in human SK-OV-3 cells assessed as destruction of microtubule network at 20 nM incubated for 18 hrs by Alexa Fluor 488 staining based confocal immunofluorescent microscopic analysis; assay type: cell-based
# [8] = test system: MCF7; experiment: Inhibition of cell migration in human MCF7 cells assessed as ratio of migrated cells at 6.25 nM incubated for 24 hrs by crystal violet staining based inverted microscopic analysis (reference value: 100%); assay type: functional; set-up: scale not given: the % may be the effect or the level left
compound,measurement,setting,value
CNc1nc(N2CCCc3cc(OC)ccc32)c2cc(F)ccc2n1,IC50,[1],1 nM
same,Activity,[2],25.3%
same,"response, % of control at 0.00625 µM",[3],18.4%
same,Activity,[4],inactive
same,Activity,[5],Time-dependent-effect
same,Activity,[6],Dose-dependent-effect
same,inhibition,[7],Active
same,Activity,[8],88.6%
